{"source": "patent US11045559B2", "about": "“Reactive fluorogenic compound and nanocomposite for sensing hydrogen sulfide comprising the same” (KOREA INSTITUTE OF SCIENCE AND TECHNOLOGY, priority 2017, dated 2021)", "experiment": "Fluorescence response and chemoselectivity of ABR in organic media", "excerpt": "Specifically, in order to devise a H2S-responsive fluorogenic molecular probe, the present inventors have adopted a reaction strategy based on the chemoselective reduction of aryl azides to amines, which is triggered through nucleophilic attack by a hydrosulfide anion (HS^−), which is the main active form of H2S under physiological conditions. In the probe design, the 4-azidobenzyl group was selected as a self-immolative aryl azide linker, and it was linked to a fluorescent emitter, resorufin, at its 7-hydroxy position. Since the 7-hydroxy substituent is known to efficiently quench the fluorescence of resorufin, the designed molecular probe, azidobenzylresorufin (ABR), is anticipated to be nonfluorescent and able to undergo self-immolative cleavage upon reaction with HS^−, to release a 1,6-elimination product (azaquinone methide) and resorufin with fluorescence recovery. […] Along the resulting fluorescence spectrum, the ^1H-NMR analysis confirmed that the fluorescent product is resorufin recovered through the self-immolative release from ABR after reduction by H2S (FIG. 3)."}
{"smiles": "[N-]=[N+]=Nc1ccc(COc2ccc3nc4ccc(=O)cc-4oc3c2)cc1", "note": "[ABR, 7-(4-azidobenzyloxy)-3H-phenoxazin-3-one]", "values": [{"measurement": "fluorescence response toward H2S", "setting": "NaHS present vs absent, FIG. 2a", "value": "fluorescence turn-on response toward H2S"}, {"measurement": "chemoselectivity in spectroscopic response", "setting": "reactive sulfur, oxygen, nitrogen species 100 μM (GSH 1 mM) in acetonitrile, FIG. 2b", "value": "responded only to H2S"}]}
